Reference: patent EP0400480A1, “A method for enhancing the cytotoxicity of anthracyclines through photoactivation” (CONSIGLIO NAZIONALE DELLE RICERCHE, priority 1989, dated 1990)

Assays:
[1] = system: FRT L5 cells; test: Growth curve (count of vital cells) of FRT L5 cells after 2 hr incubation with or without 595 nm irradiation (Example 1); assay type: cell-based, Fisher Rat; settings: 50 ng/ml, irradiation 595 nm 245 J/cm², curve (f) compared with non-irradiated curve (b)
Method: A culture of Fisher Rat Thyroid cells classified as FRT L5 was performed routinely in Petri dishes in a Ham F-12 medium modified by Coon (K.C. Biological Co.) with addition of 5% calf serum (Grand Island Biological Co.) by incubation at 37°C in an atmosphere with 5% CO₂.
For determining the growth curve a suitable number of the colture Petri dishes was trypsinized and the cells were re-suspended in growth medium in such a way as to have a cell concentration of appoximately 10⁶/ml. Suspension volumes containing a number of cells of the order of 10⁵ were poured into dishes of 60 mm diameter and covered with 3 ml culture medium, maintaining the cell suspension under stirring in order to have a uniform cell distribution in the various dishes.
The dishes were put in an incubator for 24 hrs and then incubated for 2 hrs with fresh reaction medium containing […] (5-ID).
5-iminodaunomicin was prepared in a 1.78.10⁻⁵M solution in dejonized bidistilled water and was added to the various dishes in such amounts as to have concentrations of 0,50, 200, 400 and 1000 ng/ml. Incubation of these dishes was performed in the dark while at the same time a dish prepared in the same way and having a 5-iminodaunomicin concentration of 50 ng/ml was incubated under red light radiation of 595 nm wave length. […]

[2] = system: FRT L5 cells; test: Cell survival of FRT L5 cells relative to non-irradiated culture after incubation with 595 nm irradiation (Examples 2 and 3); assay type: cell-based, Fisher Rat; settings: 1000 ng/ml
Method: Following the method of Example 1, FRT L5 cells were resuspended, distributed in dishes and incubated for 72 hrs. At this point 5-ID was introduced in the dishes in an amount such as to have a concentration in the medium of 1000 ng/ml and the dishes were incubated for 2 hrs. During this period the various dishes were irradiated with red light of 595 nm with constant radiation density on the dish of an average of 34 mW/cm² for times of from 15 to 120 minutes.
Each irradiation period was selected so that its termination coincided with the incubation end.
The average dose of light administered on the dish in 120 minutes was 245 J/cm².
2, in which the percentage of cell survival refferred to a non-irradiated culture is represented as a function of the light dose in J/cm².
Example 2 was repeated, except that each dish was irradiated for only 15 minute during the 2 hr incubation with 5-ID.
Said 15 minute irradiations were started with increasing delays with respect to the start of the incubation, and precisely with delays of 0,15, 30, 45, 60, 75, 90 and 105 minutes.
The results are reported in figure 3, in which the percentage cell survival, with respect to non- irradiated cultures, is reported as a function of the delay from the irradiation start with respect to the start of the incubation with 5-ID.

Compound: COc1cccc2c1C(=N)c1c(O)c3c(c(O)c1C2=O)C[C@@](O)(C(C)=O)C[C@@H]3O[C@H]1C[C@H](N)[C@H](O)[C@H](C)O1 [5-ID, 5-iminodaunomicin]
- lowering the number of vital cell [1]: one order of magnitude
- lethal effect (cell survival referred to a non-irradiated culture) ([2]; 2 hr incubation, irradiation 595 nm, 34 mW/cm², short time (ca. 30 minutes)): high lethal effect
- effect of incubation without irradiation ([2]; without irradiation, short time, see curve (e) of figure 1): does not have a measurable effect
